pKi: −log10 of the molar value. Structures can show the parent of a compound that is named as a salt.
These compounds were tested against T1, human GlyT1c transporter (Homo sapiens, UniProt P48067) (assay: Radioligand binding assay using recombinant CHO cell membranes expressing human GlyT1). Conditions: values given as bounds, read-out: radioligand binding K^iapp.
T1 construct: expressed in transfected cells; host or cells: CHO cells (recombinant; membranes)
T1 sequence (P48067 1-706): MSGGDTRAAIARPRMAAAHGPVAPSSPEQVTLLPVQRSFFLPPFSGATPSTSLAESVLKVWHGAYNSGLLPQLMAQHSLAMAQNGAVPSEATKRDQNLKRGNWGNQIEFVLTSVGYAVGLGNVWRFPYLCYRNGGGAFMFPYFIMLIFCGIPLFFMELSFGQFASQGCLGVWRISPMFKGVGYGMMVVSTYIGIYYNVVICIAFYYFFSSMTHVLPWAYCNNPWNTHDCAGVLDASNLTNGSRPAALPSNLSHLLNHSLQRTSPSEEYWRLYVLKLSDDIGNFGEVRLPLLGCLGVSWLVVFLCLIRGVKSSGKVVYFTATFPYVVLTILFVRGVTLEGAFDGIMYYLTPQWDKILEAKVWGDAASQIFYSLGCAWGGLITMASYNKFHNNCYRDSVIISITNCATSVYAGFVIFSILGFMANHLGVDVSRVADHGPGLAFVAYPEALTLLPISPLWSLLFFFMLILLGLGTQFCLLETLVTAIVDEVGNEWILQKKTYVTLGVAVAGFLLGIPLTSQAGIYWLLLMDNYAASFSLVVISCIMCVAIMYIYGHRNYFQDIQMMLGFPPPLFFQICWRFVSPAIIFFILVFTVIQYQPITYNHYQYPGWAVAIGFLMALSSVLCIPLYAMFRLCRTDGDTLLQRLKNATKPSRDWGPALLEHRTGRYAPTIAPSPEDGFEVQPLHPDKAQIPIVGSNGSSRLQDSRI
Protocol: Radioligand binding to human GlyT1c transporter-expressing membranes was carried out as described in Mezler et al., Molecular Pharmacology 74:1705-1715, 2008.
In the case of CCS(=O)(=O)NCCn1cc2c(n1)C(C1(c3ccc(Cl)cc3)CCC1)NCC2 (stereo not drawn) [Example 9.2, N-(2-(7-(1-(4-Chlorophenyl)cyclobutyl)-4,5,6,7-tetrahydro-2H-pyrazolo[3,4-c]pyridin-2-yl)ethyl)ethanesulfonamide hydrochloride], the pKi was ≥ 5.00. With O=S(=O)(CCCF)NCCn1ncc2c1C(C1(c3ccc(Cl)cc3)CCC1)NCC2 (stereo not drawn) [Example 7.3, N-(2-(7-(1-(4-Chlorophenyl)cyclobutyl)-4,5,6,7-tetrahydro-1H-pyrazolo[3,4-c]pyridin-1-yl)ethyl)-3-fluoropropane-1-sulfonamide hydrochloride] the pKi was ≥ 6.00. For O=S(=O)(CC1CC1)NCc1ncc2c(n1)C(C1(c3ccc(Cl)cc3)CCC1)NCC2 (stereo not drawn) [Example 8.2, N-((8-(1-(4-Chlorophenyl)cyclobutyl)-5,6,7,8-tetrahydropyrido[3,4-d]pyrimidin-2-yl)methyl)-1-cyclopropylmethanesulfonamide hydrochloride], the pKi was ≥ 6.00. In the case of CCCCS(=O)(=O)NCCn1cc2c(n1)C(C1(c3ccc(Cl)cc3)CCC1)NCC2 (stereo not drawn) [Example 9.5, N-(2-(7-(1-(4-Chlorophenyl)cyclobutyl)-4,5,6,7-tetrahydro-2H-pyrazolo[3,4-c]pyridin-2-yl)-ethyl)butane-1-sulfonamide hydrochloride], the pKi was ≥ 6.00. For Cn1cnc(S(=O)(=O)NCc2ncc3c(n2)C(C2(c4ccc(Cl)cc4)CCC2)NCC3)c1 (stereo not drawn) [Example 8.4, N-((8-(1-(4-Chlorophenyl)cyclobutyl)-5,6,7,8-tetrahydropyrido[3,4-d]pyrimidin-2-yl)methyl)-1-methyl-1H-imidazole-4-sulfonamide hydrochloride], the pKi was ≥ 6.00. For NCCn1cc2c(n1)C(C1(c3ccc(Cl)cc3)CCC1)NCC2 (stereo not drawn) [Example 6, 2-(7-(1-(4-Chlorophenyl)cyclobutyl)-4,5,6,7-tetrahydro-2H-pyrazolo[3,4-c]pyridin-2-yl)ethanamine dihydrochloride], the pKi was ≤ 5.00. For Cn1cc(S(=O)(=O)NCCn2cc3c(n2)C(C2(c4ccc(Cl)cc4)CCC2)NCC3)cn1 (stereo not drawn) [Example 9.6, N-(2-(7-(1-(4-Chlorophenyl)cyclobutyl)-4,5,6,7-tetrahydro-2H-pyrazolo[3,4-c]pyridin-2-yl)-ethyl)-1-methyl-1H-pyrazole-4-sulfonamide hydrochloride], the pKi was ≥ 6.00. With O=S(=O)(CC1CC1)NCCn1cc2c(n1)C(C1(c3ccc(Cl)cc3)CCC1)NCC2 (stereo not drawn) [Example 9.10, N-(2-(7-(1-(4-Chlorophenyl)cyclobutyl)-4,5,6,7-tetrahydro-2H-pyrazolo[3,4-c]pyridin-2-yl)-ethyl)-1-cyclopropylmethanesulfonamide hydrochloride] the pKi was ≥ 6.00. For Cn1cc(S(=O)(=O)NCCn2ncc3c2C(C2(c4ccc(Cl)cc4)CCC2)NCC3)cn1 (stereo not drawn) [Example 7.2, N-(2-(7-(1-(4-Chlorophenyl)cyclobutyl)-4,5,6,7-tetrahydro-1H-pyrazolo[3,4-c]pyridin-1-yl)ethyl)-1-methyl-1H-pyrazole-4-sulfonamide hydrochloride], the pKi was ≥ 5.00. O=S(=O)(CCCF)NCc1ncc2c(n1)C(C1(c3ccc(Cl)cc3)CCC1)NCC2 (stereo not drawn) [Example 8.5, N-((8-(1-(4-Chlorophenyl)cyclobutyl)-5,6,7,8-tetrahydropyrido[3,4-d]pyrimidin-2-yl)methyl)-3-fluoropropane-1-sulfonamide hydrochloride] was tested, and the pKi was ≥ 6.00. For O=S(=O)(NCCn1cc2c(n1)C(C1(c3ccc(Cl)cc3)CCC1)NCC2)C1CCC1 (stereo not drawn) [Example 9.9, N-(2-(7-(1-(4-Chlorophenyl)cyclobutyl)-4,5,6,7-tetrahydro-2H-pyrazolo[3,4-c]pyridin-2-yl)-ethyl)cyclobutanesulfonamide hydrochloride], the pKi was ≥ 6.00. For CCCS(=O)(=O)N(C)CCn1cc2c(n1)C(C1(c3ccc(Cl)cc3)CCC1)NCC2 (stereo not drawn) [Example 10, N-(2-(7-(1-(4-chlorophenyl)cyclobutyl)-4,5,6,7-tetrahydro-2H-pyrazolo[3,4-c]pyridin-2-yl)ethyl)-N-methylpropane-1-sulfonamide hydrochloride], the pKi was ≥ 6.00. With Cn1cnc(S(=O)(=O)NCCn2ncc3c2C(C2(c4ccc(Cl)cc4)CCC2)NCC3)c1 (stereo not drawn) [Example 7.4, N-(2-(7-(1-(4-Chlorophenyl)cyclobutyl)-4,5,6,7-tetrahydro-1H-pyrazolo[3,4-c]pyridin-1-yl)ethyl)-1-methyl-1H-imidazole-4-sulfonamide hydrochloride] the pKi was ≥ 6.00. For CS(=O)(=O)NCCn1cc2c(n1)C(C1(c3ccc(Cl)cc3)CCC1)NCC2 (stereo not drawn) [Example 9.3, N-(2-(7-(1-(4-Chlorophenyl)cyclobutyl)-4,5,6,7-tetrahydro-2H-pyrazolo[3,4-c]pyridin-2-yl)ethyl)methanesulfonamide hydrochloride], the pKi was ≥ 6.00. CCCS(=O)(=O)NCc1ncc2c(n1)C(C1(c3ccc(Cl)cc3)CCC1)NCC2 (stereo not drawn) [Example 8.1, N-((8-(1-(4-Chlorophenyl)cyclobutyl)-5,6,7,8-tetrahydropyrido[3,4-d]pyrimidin-2-yl)methyl)propane-1-sulfonamide hydrochloride] was tested, and the pKi was ≥ 6.00. In the case of O=S(=O)(CCCF)NCCn1cc2c(n1)C(C1(c3ccc(Cl)cc3)CCC1)NCC2 (stereo not drawn) [Example 9.8, N-(2-(7-(1-(4-Chlorophenyl)cyclobutyl)-4,5,6,7-tetrahydro-2H-pyrazolo[3,4-c]pyridin-2-yl)ethyl)-3-fluoropropane-1-sulfonamide hydrochloride], the pKi was ≥ 6.00. In the case of CC(C)CS(=O)(=O)NCCn1cc2c(n1)C(C1(c3ccc(Cl)cc3)CCC1)NCC2 (stereo not drawn) [Example 9.11, N-(2-(7-(1-(4-chlorophenyl)cyclobutyl)-4,5,6,7-tetrahydro-2H-pyrazolo[3,4-c]pyridin-2-yl)ethyl)-2-methylpropane-1-sulfonamide hydrochloride], the pKi was ≥ 6.00. With Cn1cnc(S(=O)(=O)NCCn2cc3c(n2)C(C2(c4ccc(Cl)cc4)CCC2)NCC3)c1 (stereo not drawn) [Example 9.7, N-(2-(7-(1-(4-Chlorophenyl)cyclobutyl)-4,5,6,7-tetrahydro-2H-pyrazolo[3,4-c]pyridin-2-yl)ethyl)-1-methyl-1H-imidazole-4-sulfonamide hydrochloride] the pKi was ≥ 6.00. CCCS(=O)(=O)NCCn1cc2c(n1)C(C1(c3ccc(Cl)cc3)CCC1)NCC2 (stereo not drawn) [Example 9.1, N-(2-(7-(1-(4-Chlorophenyl)cyclobutyl)-4,5,6,7-tetrahydro-2H-pyrazolo[3,4-c]pyridin-2-yl)ethyl)propane-1-sulfonamide hydrochloride] was tested, and the pKi was ≥ 6.00. In the case of CCCS(=O)(=O)NCCn1ncc2c1C(C1(c3ccc(Cl)cc3)CCC1)NCC2 (stereo not drawn) [Example 7.1, N-(2-(7-(1-(4-Chlorophenyl)cyclobutyl)-4,5,6,7-tetrahydro-1H-pyrazolo[3,4-c]pyridin-1-yl)ethyl)propane-1-sulfonamide hydrochloride], the pKi was ≥ 6.00. O=S(=O)(NCCn1cc2c(n1)C(C1(c3ccc(Cl)cc3)CCC1)NCC2)c1cccnc1 (stereo not drawn) [Example 9.12, N-(2-(7-(1-(4-Chlorophenyl)cyclobutyl)-4,5,6,7-tetrahydro-2H-pyrazolo[3,4-c]pyridin-2-yl)ethyl)pyridine-3-sulfonamide dihydrochloride] was tested, and the pKi was ≥ 6.00. CCCS(=O)(=O)NCCn1c2c(c3ccccc31)CCNC2C1(c2ccc(Cl)cc2)CCC1 (stereo not drawn) [Example 11, N-(2-{1-[1-(4-Chlorophenyl)cyclobutyl]-1,2,3,4-tetrahydro-9H-b-carbolin-9-yl}ethyl)propane-1-sulfonamide] was tested, and the pKi was ≥ 6.00. In the case of Cn1cc(S(=O)(=O)NCc2ncc3c(n2)C(C2(c4ccc(Cl)cc4)CCC2)NCC3)cn1 (stereo not drawn) [Example 8.3, N-((8-(1-(4-Chlorophenyl)cyclobutyl)-5,6,7,8-tetrahydropyrido[3,4-d]pyrimidin-2-yl)methyl)-1-methyl-1H-pyrazole-4-sulfonamide hydrochloride], the pKi was ≥ 6.00. With O=S(=O)(NCCn1cc2c(n1)C(C1(c3ccc(Cl)cc3)CCC1)NCC2)c1ccccc1 (stereo not drawn) [Example 9.4, N-(2-(7-(1-(4-Chlorophenyl)cyclobutyl)-4,5,6,7-tetrahydro-2H-pyrazolo[3,4-c]pyridin-2-yl)ethyl)benzenesulfonamide hydrochloride] the pKi was ≥ 6.00.

— patent US8642587B2, “Heterocyclic compounds, pharmaceutical compositions containing them, and their use in therapy” (AbbVie Deutschland GmbH & Co. KG, priority 2009, dated 2014)
